From PubChem BioAssay AID1963425 (Molecular Pharmacology Branch, DTP, NCI, 2024)

Test system: 323965-272-R-J2-PDC complex spheroid growth, % test/control
Assay: Anticancer human tumor 323965-272-R-J2-PDC patient-derived pancreatic carcinoma cell line growth inhibition [Asc]
Conditions: for IC50: curve of first compound; for viability, T/C: stronger effect = lower value
Outline: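 Tumor cells were grown as complex spheroids with human endothelial cells (HUVEC) and human mesenchymal stem cells as stroma. Agents were tested alone and in combination, in half-log steps down from the clinical Cmax, or from 10 microM where Cmax was unknown.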

[1] = second compound 0.0316 µM, first compound 0.00316 µM
[2] = second compound 0.0316 µM, first compound 0.01 µM
[3] = second compound 0.0316 µM, first compound 0.0316 µM
[4] = second compound 0.0316 µM, first compound 0.1 µM
[5] = second compound 0.0316 µM, first compound 0.316 µM
[6] = second compound 0.0316 µM, first compound 1 µM
[7] = second compound 0.1 µM, first compound 0.00316 µM
[8] = second compound 0.1 µM, first compound 0.01 µM
[9] = second compound 0.1 µM, first compound 0.0316 µM
[10] = second compound 0.1 µM, first compound 0.1 µM
[11] = second compound 0.1 µM, first compound 0.316 µM
[12] = second compound 0.1 µM, first compound 1 µM
[13] = second compound 0.316 µM, first compound 0.00316 µM
[14] = second compound 0.316 µM, first compound 0.01 µM
[15] = second compound 0.316 µM, first compound 0.0316 µM
[16] = second compound 0.316 µM, first compound 0.1 µM
[17] = second compound 0.316 µM, first compound 0.316 µM
[18] = second compound 0.316 µM, first compound 1 µM
[19] = second compound 1 µM, first compound 0.00316 µM
[20] = second compound 1 µM, first compound 0.01 µM
[21] = second compound 1 µM, first compound 0.0316 µM
[22] = second compound 1 µM, first compound 0.1 µM
[23] = second compound 1 µM, first compound 0.316 µM
[24] = second compound 1 µM, first compound 1 µM
[25] = second compound 3.16 µM, first compound 0.00316 µM
[26] = second compound 3.16 µM, first compound 0.01 µM
[27] = second compound 3.16 µM, first compound 0.0316 µM
[28] = second compound 3.16 µM, first compound 0.1 µM
[29] = second compound 10 µM, first compound 0.00316 µM
[30] = second compound 10 µM, first compound 0.01 µM
[31] = second compound 10 µM, first compound 0.0316 µM
[32] = second compound 10 µM, first compound 0.1 µM
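Note: compound exposure lasted 7 days starting three days after spheroid seeding.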
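Throughout, for viability, T/C: 100% = DMSO vehicle control wells with viability set relative to vehicle.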

Work on `O=C(c1ccc(F)c(F)c1Nc1ccc(I)cc1F)N1CC(O)([C@@H]2CCCCN2)C1` + Cc1c(S(C)(=O)=O)c(-c2cc(F)cc(N3CCN(c4ccc(NS(=O)(=O)c5ccc(NC(CCN6CCC(C(=O)OCCCP(=O)(O)O)CC6)CSc6ccccc6)c(S(=O)(=O)C(F)(F)F)c5)cc4)CC3)c2)c(-c2ccc(Cl)cc2)n1C(C)C yielded an IC50 (second compound 0.0316 µM) of 139 nM, an IC50 (second compound 0.1 µM) of 133 nM and an IC50 (second compound 0.316 µM) of 81.6 nM. For the same compound, the IC50 (second compound 1 µM) was 51.8 nM, the IC50 (second compound 3.16 µM) was 29.6 nM and the IC50 (second compound 10 µM) was 20.9 nM. The viability, T/C [1] was 91%, the viability, T/C [2] was 89.6% and the viability, T/C [3] was 77.3%. It also gave a viability, T/C [4] of 54.5%, a viability, T/C [5] of 35.2% and a viability, T/C [6] of 16.4%. The viability, T/C [7] was 115%, the viability, T/C [8] was 103% and the viability, T/C [9] was 76.5%. It also gave a viability, T/C [10] of 59.6%, a viability, T/C [11] of 30% and a viability, T/C [12] of 15.1%. For the same compound, the viability, T/C [13] was 98.2%, the viability, T/C [14] was 98.7% and the viability, T/C [15] was 68.1%. The viability, T/C [16] was 47.4%, the viability, T/C [17] was 21.9% and the viability, T/C [18] was 10.4%. The viability, T/C [19] was 88.8%, the viability, T/C [20] was 70.5% and the viability, T/C [21] was 61.5%. The viability, T/C [22] was 40.3%, the viability, T/C [23] was 16.7% and the viability, T/C [24] was 7.35%. It also gave a viability, T/C [25] of 82%, a viability, T/C [26] of 63.5% and a viability, T/C [27] of 52.6%. It also gave a viability, T/C [28] of 28.2%, a viability, T/C (second compound 3.16 µM, first compound 0.316 µM) of 10.3% and a viability, T/C (second compound 3.16 µM, first compound 1 µM) of 3.52%. It also gave a viability, T/C [29] of 78.6%, a viability, T/C [30] of 66.5% and a viability, T/C [31] of 39.3%. It also gave a viability, T/C [32] of 22.3%, a viability, T/C (second compound 10 µM, first compound 0.316 µM) of 7.23% and a viability, T/C (second compound 10 µM, first compound 1 µM) of 3.38%.

For `Cn1ncnc1[C@H]1c2n[nH]c(=O)c3cc(F)cc(c23)N[C@@H]1c1ccc(F)cc1` + Cc1c(S(C)(=O)=O)c(-c2cc(F)cc(N3CCN(c4ccc(NS(=O)(=O)c5ccc(NC(CCN6CCC(C(=O)OCCCP(=O)(O)O)CC6)CSc6ccccc6)c(S(=O)(=O)C(F)(F)F)c5)cc4)CC3)c2)c(-c2ccc(Cl)cc2)n1C(C)C, the IC50 (second compound 0.0316 µM) was over 100 nM, the IC50 (second compound 0.1 µM) was over 100 nM and the IC50 (second compound 0.316 µM) was over 100 nM. For the same compound, the IC50 (second compound 1 µM) was over 100 nM, the IC50 (second compound 3.16 µM) was over 100 nM and the IC50 (second compound 10 µM) was over 100 nM. The viability, T/C (second compound 0.0316 µM, first compound 0.000316 µM) was 105%, the viability, T/C (second compound 0.0316 µM, first compound 0.001 µM) was 92.2% and the viability, T/C [1] was 105%. It also gave a viability, T/C [2] of 96.2%, a viability, T/C [3] of 95.3% and a viability, T/C [4] of 86.4%. The viability, T/C (second compound 0.1 µM, first compound 0.000316 µM) was 86.4%, the viability, T/C (second compound 0.1 µM, first compound 0.001 µM) was 102% and the viability, T/C [7] was 97.9%. The viability, T/C [8] was 104%, the viability, T/C [9] was 95.4% and the viability, T/C [10] was 92.7%. It also gave a viability, T/C (second compound 0.316 µM, first compound 0.000316 µM) of 94.8%, a viability, T/C (second compound 0.316 µM, first compound 0.001 µM) of 99.7% and a viability, T/C [13] of 100%. For the same compound, the viability, T/C [14] was 84.2%, the viability, T/C [15] was 96.7% and the viability, T/C [16] was 80.5%. The viability, T/C (second compound 1 µM, first compound 0.000316 µM) was 96.5%, the viability, T/C (second compound 1 µM, first compound 0.001 µM) was 89.3% and the viability, T/C [19] was 88.8%. The viability, T/C [20] was 87.2%, the viability, T/C [21] was 84.3% and the viability, T/C [22] was 66.5%. The viability, T/C (second compound 3.16 µM, first compound 0.000316 µM) was 86.6%, the viability, T/C (second compound 3.16 µM, first compound 0.001 µM) was 76.2% and the viability, T/C [25] was 80.3%. It also gave a viability, T/C [26] of 75.4%, a viability, T/C [27] of 70% and a viability, T/C [28] of 64.5%. It also gave a viability, T/C (second compound 10 µM, first compound 0.000316 µM) of 81.5%, a viability, T/C (second compound 10 µM, first compound 0.001 µM) of 73.4% and a viability, T/C [29] of 71.8%. For the same compound, the viability, T/C [30] was 69.1%, the viability, T/C [31] was 71.1% and the viability, T/C [32] was 59.6%.

`COc1c(OCCCN2CCOCC2)ccc2c3n(c(=NC(=O)c4cnc(N)nc4)nc12)CCN3` + CNC(C)C(=O)NC1CN(S(=O)(=O)c2cccc(S(=O)(=O)N3CCC4CCC(C(=O)NC(c5ccccc5)c5ccccc5)N4C(=O)C(NC(=O)C(C)NC)C3)c2)CCC2CCC(C(=O)NC(c3ccccc3)c3ccccc3)N2C1=O was tested, and the IC50 (second compound 0.00316 µM) was 129 nM, the IC50 (second compound 0.01 µM) was 99.2 nM and the IC50 (second compound 0.0316 µM) was 92.6 nM. It also gave an IC50 (second compound 0.1 µM) of 78.4 nM, an IC50 (second compound 0.316 µM) of 102 nM and an IC50 (second compound 1 µM) of 70.5 nM. It also gave a viability, T/C (second compound 0.00316 µM, first compound 0.00316 µM) of 97.2%, a viability, T/C (second compound 0.00316 µM, first compound 0.01 µM) of 81.3% and a viability, T/C (second compound 0.00316 µM, first compound 0.0316 µM) of 69.5%. The viability, T/C (second compound 0.00316 µM, first compound 0.1 µM) was 54.6%, the viability, T/C (second compound 0.00316 µM, first compound 0.316 µM) was 36.9% and the viability, T/C (second compound 0.00316 µM, first compound 1 µM) was 32.4%. It also gave a viability, T/C (second compound 0.01 µM, first compound 0.00316 µM) of 91.6%, a viability, T/C (second compound 0.01 µM, first compound 0.01 µM) of 88.9% and a viability, T/C (second compound 0.01 µM, first compound 0.0316 µM) of 60.1%. The viability, T/C (second compound 0.01 µM, first compound 0.1 µM) was 52.8%, the viability, T/C (second compound 0.01 µM, first compound 0.316 µM) was 36.8% and the viability, T/C (second compound 0.01 µM, first compound 1 µM) was 26%. For the same compound, the viability, T/C [1] was 94.7%, the viability, T/C [2] was 84.1% and the viability, T/C [3] was 66.4%. The viability, T/C [4] was 48.6%, the viability, T/C [5] was 37.6% and the viability, T/C [6] was 31.3%. It also gave a viability, T/C [7] of 89.5%, a viability, T/C [8] of 80.1% and a viability, T/C [9] of 62.9%. It also gave a viability, T/C [10] of 49.3%, a viability, T/C [11] of 29.9% and a viability, T/C [12] of 29.4%. The viability, T/C [13] was 84.9%, the viability, T/C [14] was 85.4% and the viability, T/C [15] was 73.3%. The viability, T/C [16] was 49.7%, the viability, T/C [17] was 36.8% and the viability, T/C [18] was 30.3%. For the same compound, the viability, T/C [19] was 85.2%, the viability, T/C [20] was 76.3% and the viability, T/C [21] was 60.5%. It also gave a viability, T/C [22] of 43.4%, a viability, T/C [23] of 35.8% and a viability, T/C [24] of 24.3%.
